This note sets out measurements from a melting point compilation (Tetko et al.; mined from patent text by program, amines drawn as free bases though some values may be those of a salt).

A value given as a limit tells only on which side of the number the result lay.

`CCOC(=O)Cn1c(C)c(-c2ccnc3cc(Cl)ccc23)c2cc(NC(C)=O)ccc21`: the melting point is 281 to 284 °C. Take `CC(=O)Oc1ccc(-c2ccc(C(C)=O)cc2)cc1`: the melting point is 124 to 126 °C. The compound `Cc1ccc(S(=O)(=O)N2CCc3ccccc3C(Oc3ccc(C(F)(F)F)cc3)C2)cc1` (stereo not given) registered a melting point of 114 to 115 °C.

`Cc1cc(N2CCN(Cc3ccc(F)cc3)C2=O)sc1C(=O)NCc1nc2ccccc2[nH]1` registered a melting point of 265 to 267 °C. Compound `O=C(O)CC(O)c1cccc(Cl)c1` (stereo not given) gave a melting point of 94.5 to 95.5 °C. Then `NC(=O)Cc1ccc(-c2csc(N=C(N)N)n2)o1`, with 219 to 220 °C; and `N#Cc1ccc(NC2=C(Cl)C(=O)c3ccccc3C2=O)cc1`, with 188 to 189 °C; and `Cc1cnn(Cc2ccc3c(c2)-c2[nH]nc(-c4ccsc4)c2C3)c1`, with 262 to 263 °C.

For `Oc1ccc(-c2cc3cc(O)cc(CC(F)(F)F)c3o2)cc1`, the melting point was in the range of 210 to 213 °C. With `O=C(c1ncco1)c1ccc([N+](=O)[O-])cc1Cl`, the melting point was 124 to 125 °C.

As for `Fc1cccc2c(NCCc3cccs3)ccnc12`, the melting point was 157 to 158 °C. `C#CCSC(=S)N(C)C` showed a melting point of 57 to 59 °C. For `Cn1cnc(COc2nn3c(-c4ccccc4)nnc3cc2-c2ccc(Cl)s2)n1`, the melting point is 248 to 250 °C. For the compound `NCc1cccc(CNC(=O)C2Cc3ccccc3N2S(=O)(=O)c2ccc(-c3cccc(C(F)(F)F)c3)cc2)c1` (stereo not given), the melting point was 116 °C. As for `COCOc1cccc(-c2ccc(-c3ccc(C(=O)O)cc3)cc2-c2ccc3c(c2)C(C)(C)CCC3(C)C)c1`, the melting point was 103 to 104 °C. The value for `CC(C)OC(=O)CCN=c1sc2ccccc2s1` was 60 to 61 °C; that for `CN1C(=O)C(C)(C)C(=O)N(C)c2cc([N+](=O)[O-])ccc21` was 224 to 225 °C; that for `CN1C(=O)[C@H](NC(=O)CNc2ccc(C(F)(F)F)cc2)N=C(c2ccccc2)c2ccccc21` was 218 to 219 °C.

On to `O=c1[nH]c2ccccc2n2cc(-c3ccccc3)cc12`, for which the melting point is 301 to 303 °C. In turn, `CCN(C)N1CSC(=Cc2cc(C(C)(C)C)c(O)c(C(C)(C)C)c2)C1=O` displayed a melting point of 134 to 135 °C. Then `Cc1nc(-c2cccnc2)sc1-c1ccnc(Nc2ccc(N3CCOCC3)c(Cl)c2)n1`, with 230 to 231 °C; and `COc1ccc(-c2[nH]nc3c2C(=O)c2c(NC(=O)NNC(=O)c4cc(N)cc(N)c4)cccc2-3)cc1`, with above 300 °C; and `O=C(Nc1cccc(-c2ccnc3c(C(=O)c4cccs4)cnn23)c1)c1ccccc1`, with 211 to 213 °C. Take `CSc1ccc(COc2cccc(C(=O)Nc3ccc(C#N)cc3)c2)cc1`: the melting point was in the range of 147 to 148 °C. In turn, `COc1cc(Nc2nccc(-c3cn(S(=O)(=O)c4ccccc4)c4ccccc34)n2)cc(OC)c1OC` showed a melting point of 202 °C. `CC(Oc1ccc2oc3cc(Cl)ccc3c2c1)C(N)=O` (stereo not given) yielded a melting point of 185 to 187 °C.

Consider `CC/C=C/C(=O)NC(=O)OC(C)(C)C`, for which the melting point fell in the range of 78 to 79 °C. Compound `FC(F)(F)c1cc(-n2cncn2)c2cccc(C(F)(F)F)c2n1` gave a melting point of 106 to 107 °C. The compound `CN1CCC(Oc2ccc3ccccc3n2)(c2ccccc2)CC1` gave a melting point of 80 to 81 °C. The compound `O=C(NCc1ccsc1)N(O)CCO` gave a melting point of 114 to 115 °C. The compound `Cc1ccc(-n2nc(C(C)(C)C)cc2NC(=O)Nc2ccc(N(C)c3ccncc3)c3ccccc23)cc1` registered a melting point of 174 to 177 °C. For `CC(C)(C)NC(=O)NC1=CC(=O)CCC1`, the melting point was in the range of 223 to 225 °C.

Compound `Cc1nc2c(OCc3c(Cl)ccc(S(=O)(=O)N4CCC[C@H]4C(=O)NCCCNC(=O)c4ccc(C=NN)cc4)c3Cl)cccn2c1Br` yielded a melting point of 170 °C. Compound `CC(C)(CCCCCC(=O)CCCCCC1(C(=O)O)CC1)C(=O)O` had a melting point of 65 to 66 °C. The compound `CCc1cc(C(=O)c2ccccc2Cl)c(-n2cnnc2CNS(=O)(=O)c2ccc3ccccc3c2)s1` showed a melting point of 165 to 167 °C.

In the case of `OC(c1ccccn1)c1cc(C(F)(F)F)nc2c(C(F)(F)F)cccc12` (stereo not given), the melting point was in the range of 133 to 135 °C. Consider `CCn1cc(C(=O)O)c(=O)cc1-c1ccc(N(C)C)cc1`, for which the melting point lay in the range of 258 to 259 °C.

`COc1ccc(C2Sc3ccccc3N(CCN(C)C)C(=O)C2OC(=O)c2ccccc2[N+](=O)[O-])cc1` (stereo not given) gave a melting point of 161 to 162 °C.

`Nc1ncnc2c1ncn2C1CC(O)(C(=O)c2cccc(C(F)(F)F)c2)C(COC(=O)c2cccc(C(F)(F)F)c2)O1` (stereo not given) came in with a melting point of 160 °C.

On to `NC(=O)c1ccnc(-c2ccccc2)c1N`, for which the melting point lay within 163 to 164 °C.

For the compound `O=Cc1cccc(-c2cnc3cnc(-c4ccc(O)cc4)nc3c2)c1`, the melting point is 266 °C.

The compound `CCn1c(=O)c2[nH]c(/C=C/c3cccc(OC)c3OC)nc2n(CC)c1=O` registered a melting point of 288 to 289 °C. As to `CCCCCCCCC#Cc1ccc2sc(C=O)cc2c1`, the melting point was 45 to 47 °C. In turn, `CCOC(=O)c1sccc1S(=O)(=O)NC(=O)Nc1nc(C)nc(OC)n1` showed a melting point of 166 °C. In turn, `Cc1cc(Oc2c(Cl)cc(C(F)(F)F)cc2Cl)nn1C(=O)NC1CCCC1` had a melting point of 90 to 92 °C. `COc1cc(-c2cccc(C)c2)cc2oc(=O)c(C)c(C)c12` had a melting point of 114 °C. The value for `O=C1NCCN1Cc1cccc(F)c1` was 103 to 105 °C. Consider `[N-]=[N+]=NC1CC(n2cc(I)c(=O)[nH]c2=O)OC1C(O)C(c1ccccc1)(c1ccccc1)c1ccccc1` (stereo not given), for which the melting point came to 80 °C.

The compound `O=[N+]([O-])c1ccc(S(=O)(=O)Nc2ccc(F)cc2)c([N+](=O)[O-])c1` displayed a melting point of 127 to 128 °C. Then `COc1cc(C(=O)N2Cc3ccccc3Cc3ccccc32)ccc1NC(=O)c1ccc(Cl)cc1Cl`, with 212 to 214 °C; and `CCCCC(CC)COC(=O)C(C#N)=Cc1ccc(C(=O)O)cc1` (stereo not given), with 159 to 162 °C; and `O=C(Nc1ccccc1C(=O)NCCc1ncc[nH]1)c1ccc(Cl)cc1Cl`, with 178 to 186 °C. Regarding `CCOCc1nc2c(N)nc(C)c(C)c2n1CC1(O)CCC1`, the melting point was 190 to 191 °C. In the case of `Cc1ccc(-c2cc(OCC(=O)N3CCSCC3)c3c(C(F)(F)F)cccc3n2)cc1`, the melting point was 154 °C. Then `Cc1c(C(=O)Nc2ccc(N3CCN(c4ccc(Cl)cc4)CC3)c(C#N)c2)cnn1-c1ccc(Cl)cc1`, with 265 °C; and `CON1C=C2N=Nc3cc(-c4ccccc4)cnc3N2C1`, with 225 to 227 °C. Then `O=S1(=O)N=CN(C2CC2)c2cc(Cl)c(F)cc21`, with 205 to 206 °C; and `Cc1nc2ccccn2c(=O)c1CCN1CC[C@H](Nc2nc3ccccc3n2Cc2ccc(F)cc2)[C@H](C)C1` (relative stereo), with 161 °C; and `CC(=O)c1cccc(-c2cnn3c(-c4cccc(NC(=O)CC(C)C)c4)ccnc23)c1`, with 190 to 192 °C. `CC1(C)COc2ccc(C(=O)Nc3ccc(C(=O)O)cc3)cc2OC1` showed a melting point of 249 to 251 °C.
